Data from US11109593B2, “Isoxazolin-5-one derivative and herbicide containing same as active ingredient” (HOKKO CHEMICAL INDUSTRY CO., LTD., priority 2017, dated 2021).

Key:
Type in all cases: in vivo
[1] = test system: Scirpus juncoides; assay: Test Example 1: herbicidal effect test by treatment of rice paddy soil (immediately after seeding); settings: 120 g/10a active ingredient, dry weight vs untreated area, 14 days after treatment
Outline: (§1)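 Flooded paddy pot test in a glass greenhouse: emulsion diluted in water, dropped at 120 g a.i. per 10 ares just after sowing, water depth kept about 3 cm. Dry-weight reduction relative to untreated plants is scored at 14 days.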

[2] = test system: Echinochloa crus-galli; assay: as above; settings: 120 g/10a active ingredient, dry weight vs untreated area, 14 days after treatment
Outline: as §1

[3] = test system: broad leaf weeds (Lindernia pyxidaria and Monochoria vaginalis); assay: as above; settings: 120 g/10a active ingredient, dry weight vs untreated area, 14 days after treatment
Outline: as §1

[4] = test system: Scirpus juncoides; assay: Test Example 2: herbicidal effect test by treatment during growing period in paddy rice cultivation (seven days after seeding); settings: 120 g/10a active ingredient, assessed 14 days after treatment, dry weight vs untreated area
Outline: (§2)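 Herbicidal rate (%) = {1 − treated/untreated mean plant dry weight} × 100, assessed in duplicate 14 days post-treatment. Emulsion formulations were diluted in water and dropped onto flooded (about 3 cm) paddy pots 7 days after seeding, giving 120 g a.i. per 10 ares. Plants were grown in a glass greenhouse.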

[5] = test system: Echinochloa crus-galli; assay: as above; settings: 120 g/10a active ingredient, assessed 14 days after treatment, dry weight vs untreated area
Outline: as §2

[6] = test system: broad leaf weeds (Lindernia pyxidaria and Monochoria vaginalis); assay: as above; settings: 120 g/10a active ingredient, assessed 14 days after treatment, dry weight vs untreated area
Outline: as §2

[7] = test system: southern crabgrass; assay: Test Example 4: herbicidal effect test by treatment of leave and stem in dry field farming (seven days after seeding); settings: 120 g/10a active ingredient; emulsion sprayed seven days after seeding; evaluated 14 days after treatment
Outline: (§3)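 Weeds were seeded at 20 seeds per species into the top 1 cm of alluvial upland soil in pots, then sprayed 7 days after seeding with water-diluted emulsifiable concentrate at 100 L/10 a, giving 120 g active ingredient/10 a. Duplicate pots; herbicidal rate (%) was 14 days post-treatment, from dry weight versus untreated.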

[8] = test system: Echinochloa crus-galli; assay: as above; settings: 120 g/10a active ingredient; emulsion sprayed seven days after seeding; evaluated 14 days after treatment
Outline: as §3

[9] = test system: Amaranthus viridis; assay: as above; settings: 120 g/10a active ingredient; emulsion sprayed seven days after seeding; evaluated 14 days after treatment
Outline: as §3

[10] = test system: Chenopodium album; assay: as above; settings: 120 g/10a active ingredient; emulsion sprayed seven days after seeding; evaluated 14 days after treatment
Outline: as §3

[11] = test system: southern crabgrass; assay: Test Example 3: herbicidal effect test by treatment of dry field farming soil (one day after seeding); settings: 120 g/10a active ingredient, evaluated 14 days after treatment
Outline: (§4)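 Herbicidal rate (%) equals 1 minus treated/untreated mean plant dry weight, times 100, taken 14 days after treatment in duplicate pots. Emulsion diluted in water was applied at 100 L per 10 ares (120 g a.i. per 10 ares) one day after sowing 20 seeds per species into the top 1 cm of alluvial soil.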

[12] = test system: Echinochloa crus-galli; assay: as above; settings: 120 g/10a active ingredient, evaluated 14 days after treatment
Outline: as §4

[13] = test system: Amaranthus viridis; assay: as above; settings: 120 g/10a active ingredient, evaluated 14 days after treatment
Outline: as §4

[14] = test system: Chenopodium album; assay: as above; settings: 120 g/10a active ingredient, evaluated 14 days after treatment
Outline: as §4

Row | Structure (SMILES) | Herbicidal rate (%) Scirpus juncoides [1] [%] | Herbicidal rate (%) Echinochloa crus-galli [2] [%] | Herbicidal rate (%) Lindernia pyxidaria [3] [%] | Herbicidal rate (%) Monochoria vaginalis [3] [%] | Herbicidal rate (%) Scirpus juncoides [4] [%] | Herbicidal rate (%) Echinochloa crus-galli [5] [%] | Herbicidal rate (%) Lindernia pyxidaria [6] [%] | Herbicidal rate (%) Monochoria vaginalis [6] [%] | herbicidal effect (herbicidal rate), southern crabgrass [7] [%] | herbicidal effect (herbicidal rate), Echinochloa crus-galli [8] [%] | herbicidal effect (herbicidal rate), Amaranthus viridis [9] [%] | herbicidal effect (herbicidal rate), Chenopodium album [10] [%] | herbicidal rate, southern crabgrass [11] [%] | herbicidal rate, Echinochloa crus-galli [12] [%] | herbicidal rate, Amaranthus viridis [13] [%] | herbicidal rate, Chenopodium album [14] [%]
1 | CCC(C)n1oc(=O)c(Cc2ccccc2N(C(=O)COC)S(=O)(=O)C(F)(F)F)c1C (centres unmarked) [Compound 1-444] | 90 | 90 | 90 | 90 | 90 | 90 | 90 | 90 | 90 | 90 | 40 | 40 | 90 | 90 | 90 | 90
2 | Cc1c(Cc2ccccc2N(C(=O)c2ccccc2)S(=O)(=O)C(F)(F)F)c(=O)on1C(C)(C)C [Compound 1-473] | 90 | 90 | 90 | 90 | 90 | 90 | 90 | 90 | 90 | 90 | 40 | 40 | 90 | 90 | 90 | 90
3 | CCC(C)n1oc(=O)c(Cc2ccccc2N(C(=O)c2ccccc2)S(=O)(=O)C(F)(F)F)c1C (centres unmarked) [Compound 1-474] | 90 | 90 | 90 | 90 | 90 | 90 | 90 | 90 | 90 | 90 | 40 | 40 | 90 | 90 | 90 | 90
4 | COCC(C)n1oc(=O)c(Cc2ccccc2N(C(=O)c2ccccc2)S(=O)(=O)C(F)(F)F)c1C (centres unmarked) [Compound 1-479] | 90 | 90 | 90 | 90 | 90 | 90 | 90 | 90 | 90 | 90 | 40 | 40 | 90 | 90 | 90 | 90
5 | CCC(C)n1oc(=O)c(Cc2ccccc2N(C(=O)c2ccc(Cl)cc2)S(=O)(=O)C(F)(F)F)c1C (centres unmarked) [Compound 1-484] | 90 | 90 | 90 | 90 | 90 | 90 | 90 | 90 | 90 | 90 | 40 | 40 | 90 | 90 | 90 | 90
6 | CCC(C)n1oc(=O)c(Cc2ccccc2N(C(=O)c2ccc(C)cc2)S(=O)(=O)C(F)(F)F)c1C (centres unmarked) [Compound 1-494] | 90 | 90 | 90 | 90 | 90 | 90 | 90 | 90 | 90 | 90 | 40 | 40 | 90 | 90 | 90 | 90
7 | Cc1c(Cc2ccccc2N(C(=O)Cc2ccccc2)S(=O)(=O)C(F)(F)F)c(=O)on1C(C)(C)C [Compound 1-503] | 90 | 90 | 90 | 90 | 90 | 90 | 90 | 90 | 90 | 90 | 40 | 40 | 90 | 90 | 90 | 90
8 | CCC(C)n1oc(=O)c(Cc2ccccc2N(C(=O)Cc2ccccc2)S(=O)(=O)C(F)(F)F)c1C (centres unmarked) [Compound 1-504] | 90 | 90 | 90 | 90 | 90 | 90 | 90 | 90 | 90 | 90 | 40 | 40 | 90 | 90 | 90 | 90
